Where “and” joins values, the source holds several entries; their conditions need not be identical. Equal entries are not always repeated.
Tests used:
4T1 = assay: WST-1 based proliferation assay, 4T1; type: cell-based, mouse; settings: for 4T1 cell proliferation at lower dose (effect in words): lower (250 nM) dose
Description: (§1) The effects of PI3K inhibitor Compound A1 and radium 223 in MCF-7 and 4T1 breast cancer cells and PC-3 and LNCaP prostate cancer cells were investigated in vitro as single agent and in combination. The effects were studied by measuring cell proliferation and apoptosis. Radium 223 and the reference inhibitor doxorubicin were added at day 0. The PI3K inhibitor(s) was added at day −1 (24 hours before addition of Alpharadin) and at day 4. The following two concentrations of the inhibitors and two concentrations of radium 223 in 4 replicates were tested:
(§2) The effects on cell proliferation were studied using a WST-1 based proliferation assay and the effects on apoptosis were studied in parallel plates by measuring caspase 3/7 activity. The measurements were performed at 4 different time points, days 1, 2, 3 and 5. Caspase activity was normalized to the cell number obtained with the WST-1 assay in parallel plates.

[1] = tested on: LNCaP prostate cancer cells in bone; assay: Orthotopic LNCaP CRPC bone model in mice; type: in vivo; settings: for Tumor growth (effect in words): LNCaP CRPC model; for Number of osteoclasts at tumor-bone interface (effect in words): TRAP staining; for Inhibition of progression of osteoblastic lesions / Growth/progression of osteoblastic lesions (effect in words): x-ray radiography; for Growth/progression of osteoblastic lesions (effect in words): lesion area
Description: The monotherapy and the combination of compound A1 and radium 223 were further tested in an orthotopic model of LNCaP, a CRPC cell line in mice. The LNCaP cells are known to form osteoblastic and mixed lesions when inoculated to bone marrow cavity. We used this model for testing the effects of compound A1 and radium-223 as single agent and in combination on the growth of LNCaP prostate cancer cells in bone. The osteoblastic bone metastases was visualized by X-ray radiography about six weeks post tumor cell inoculation. Mice with established bone metastases were randomized and treated for 45 days. The following four experimental groups with 13-14 mice in each were included in the study:
1) Vehicle control (Compd A1 vehicle QD po)
2) Ra-223 300 kBq/kg (dosed twice at 4-week intervals)+vehicle QD po
3) Compd A1 75 mg/kg (po QD)
Body weights were determined twice a week. Blood samples were taken and the animals radiographed biweekly. The animals were sacrificed 45 days after dosing, or earlier if they were moribund. Terminal blood samples were taken. Tissue samples were collected and processed for gamma-counter measurements, microCT measurements and histomorphometry.

[2] = tested on: 4T1-GFP-fluorescent mouse breast cancer cells; assay: 4T1-GFP syngeneic breast cancer bone metastasis model in mice; type: in vivo, Balb/c mice; settings: for Survival Days after Treatment, Average: average of 10 survival animals; for Survival Days after Treatment, Average / Survival Days after Treatment: radium 223 300 kBq/kg iv once, Compound A1 75 mg/kg po QD; for Survival Days after Treatment: individual survival animals 1-10; for Adrenal glands with metastasis / Ovaries with metastasis / Kidneys with metastasis: non-survival animals sacrificed at day 12 or 13; for Kidneys with metastasis: macroscopic findings and fluorescence imaging
Description: The monotherapy and the combination of compound A1 and radium 223 were tested in a syngeneic animal model that resembles the characteristics of breast cancer bone metastatic disease in humans. This model can be effectively used for testing the effects of cancer drug candidates on the metastasis of breast cancer cells to bone.
To this extend, 4T1-GFP-fluorescent mouse breast cancer cells were inoculated into the left cardiac ventricle of 4-5 weeks old female Balb/c mice. Within one-two weeks after the inoculation, the animals developed osteolytic bone metastases that can be visualized by GFP-fluorescence and X-ray radiography.
On day 7 post tumor cell inoculation, animals were randomized according to radiography and presence of tumor metastases. On day 7, animals were dosed with a single dose of radium 223 or vehicle, daily dose of PI3K inhibitor or a combination treatment with single dose of radium 223 and daily continuous dosing of PI3K inhibitor. Half of the animals (n=10) from each treatment group were sacrificed on day 13 after inoculation, or earlier when they were moribund, half of the animals (N=10) were sacrificed when they became moribund. The osteolytic lesions and whole body tumor burden were measured by x-ray and fluorescence imaging at sacrifice. Furthermore, tissue samples from the left and right tibia and femur were collected for further histomorphometric analysis. Tissue was embedded in paraffin for histomorphometric analysis of bone and tumor area.
Groups: Control group (vehicle) received Alpharadin vehicle (sodium citrate buffer), iv once and PEG/Wfi 60:40 pH 4.0, po QD; radium 223 group was given at 300 kBq/kg of radium 223, iv once and PEG/Wfi 60:40 pH 4.0, po QD; PI3K group was given 75 mg/kg of Compound A1, po QD and radium 223 vehicle, iv once; the combination group was given 300 kBq/kg of radium 223, iv once and 75 mg/kg of Compound A1, po QD;

MCF-7 [3] = assay: Caspase 3/7 apoptosis assay, MCF-7; type: cell-based, human; settings: caspase 3/7 normalized to WST-1, day 2
Description: as §1, §2

LNCaP = assay: WST-1 based proliferation assay, LNCaP; type: cell-based, human; settings: for LNCaP cell proliferation (effect in words): WST-1, days 1-5
Description: as §1, §2

MCF-7 [4] = assay: WST-1 based proliferation assay, MCF-7; type: cell-based, human; settings: WST-1, days 1-5
Description: as §1, §2

PC-3 = assay: WST-1 based proliferation assay, PC-3; type: cell-based, human; settings: WST-1, days 1-5
Description: as §1, §2

[5] = single dose 250 kBq per kg body weight; cited from earlier work
[6] = tested on: patients with CRPC (Castration Resistant Prostate Cancer) and bone metastases; settings: cited from earlier work
[7] = tested on: patients with bone metastases; settings: cited from earlier work
[8] = fluorescence imaging at sacrifice

| SMILES | 4T1 cell proliferation at lower dose (effect in words) (4T1) | Tumor growth (effect in words) [1] | Number of osteoclasts at tumor-bone interface (effect in words) [1] | Inhibition of progression of osteoblastic lesions [1] [%] | Growth/progression of osteoblastic lesions (effect in words) [1] | Survival Days after Treatment, Average [2] [days] | Whole body tumor burden (effect in words) [2, 8] | Survival Days after Treatment [2] | Adrenal glands with metastasis [2] [%] | Ovaries with metastasis [2] [%] | Kidneys with metastasis [2] [%] | MCF-7 apoptosis induction / tumor cell death (effect in words) (MCF-7 [3]) | LNCaP cell proliferation (effect in words) (LNCaP) | MCF-7 cell proliferation (effect in words) (MCF-7 [4]) | PC3 cell proliferation (effect in words) (PC-3) | other results |
| --- | --- | --- | --- | --- | --- | --- | --- | --- | --- | --- | --- | --- | --- | --- | --- | --- |
| COc1c(OC[C@H](O)CN2CCOCC2)ccc2c1N=C(NC(=O)c1cccnc1C)N1CCN=C21 [Compound A1, N-(8-{[(2R)-2-hydroxy-3-(morpholin-4-yl)propyl]oxy}-7-methoxy-2,3-dihydroimidazo[1,2-c]quinazolin-5-yl)-2-methylpyridine-3-carboxamide] | only moderate inhibition | potently inhibited | decreased | 50 | significantly inhibited | 6.6 | significantly decreased | 6 days (5×) and 4 days and 8 days (4×) | 61 | 56 | 17 | only at high dose can induce apoptosis | strong anti-proliferative effects | potent anti-proliferative activity | better anti-proliferactive activity | Whole body tumor burden reduction ([2]; fluorescence imaging at sacrifice, day 13 after inoculation, 6 days of treatment): 67%; Whole body tumor burden (effect in words) ([2]; fluorescence imaging at sacrifice, listed as compound A1): decreased; Reduction of kidney metastases ([2]; frequency of soft tissue metastases): 73%; Relative tumor area in bone marrow area (effect in words) ([2]; histomorphometry, ANOVA p=0.099477): Trends of inhibition; Reduction in total osteolytic area ([2]; radiography at sacrifice): 53.2%; Total osteolytic area / tumor-induced osteolysis (effect in words) ([2]; radiography at sacrifice): strongly inhibited |
| COc1cccc2c1C(=O)c1c(O)c3c(c(O)c1C2=O)C[C@@](O)(C(=O)CO)C[C@@H]3O[C@H]1C[C@H](N)[C@H](O)[C@H](C)O1 [doxorubicin] | – | – | – | – | – | – | – | – | – | – | – | – | inhibited proliferation | inhibited proliferation | inhibited proliferation | 4T1 cell proliferation (effect in words) (4T1; WST-1, days 1-5): inhibited proliferation |
| [Cl][223Ra][Cl] [radium 223, radium-223 dichloride] | only moderate inhibition | potently inhibited | eradicated | 56 | significantly inhibited | 6.8 | not statistically significant | 8 days (4×) and 6 days (6×) | 94 | 94 | 22 | could not induce tumor cell death | – | only slight inhibition | moderate inhibition | 4T1 cell proliferation at higher dose (effect in words) (4T1; higher dose): strong anti-proliferative effects; Number of osteoclasts at tumor-bone interface (effect in words) ([1]; listed as Ra-223): decreased; Observed adverse reactions [5]: diarrhea and reversible myelosuppression; LNCaP cell proliferation at high dose (effect in words) (LNCaP; high dose (1600 Bq/mL)): effective; Median survival longer than placebo ([6]; in vivo): 2.8 months; Time to first skeletal-related event ([6]; in vivo): significantly prolonged; Reduction in risk of death compared with placebo ([6]; overall survival): 30.5%; Disease-related biomarkers (bone ALP, PSA) ([7]; Phase 2 studies): improves disease-related biomarkers; Pain ([7]; Phase 2 studies): reduces pain; Safety profile ([7]; phase 1 and 2 studies): favorable safety profile, with minimal myelotoxicity |
